The text below walks through data of article PMC12631873 (Advanced Science, 2025).

Structures are written as SMILES. Square brackets hold non-standard residues; d marks the D form. Peptide text beside a SMILES is read from it. * marks the point of attachment. X1 = CN1/C(=C/C=C/C=C/C2=[N+](CCCCCC(=O)*)c3ccc(S(=O)(=O)[O-])cc3C2(C)C)C(C)(C)c2cc(S(=O)(=O)O)ccc21; Hyp = O=C(O)[C@@H]1C[C@@H](O)CN1; Nlys = NCCCCNCC(=O)O; Ahx = NCCCCCC(=O)O

A short description of data set [1]: Organ fluorescence 2 h post-injection (clearance route). The settings on record: nude mice, organs isolated 2 h post i.v. injection of 1 nmol. Format: in vivo, mouse. Here is the method: (§1) Typically, the fluorescence peptides or peptoids were prepared at a dose of 1 nmol (10 µM in 100 µL of 1× PBS buffer) and injected into the tail vein of each mouse 2 h prior to fluorescence imaging with an IVIS Spectrum imager (PerkinElmer Lumina III). For Figure 4, Figures S17 and S18 (Supporting Information) (joint aging and RA) and Figure S27 (Supporting Information), 2 nmol of Cy5‐(NlysO)7 (20 µM in 100 µL of 1× PBS buffer) were i.v. administered to each mouse. For 1‐week‐old neonatal mice, 1 nmol of Cy5‐(NlysO)7 (20 µM in 50 µL of 1× PBS buffer) was intravenously injected into each mouse. All in vivo imaging was performed 2 h post probe injection with the IVIS Spectrum imager (PerkinElmer, fluorescence: ex/em: 620/670 nm, exposure: 1 s, bing: 4, F/Stop: 2; field of view: A/B/C/Z). Mice were anesthesia with 3% isoflurane (RWD, R510‐22‐10) during image acquisition. Hair in the knee areas was removed before fluorescence imaging for mice in Figure 4a and Figure S17 (Supporting Information). The mice were euthanized following the final image acquisition and occasionally imaged again after skin and organ removal. Next, the airways, ankles, ears, paws, knees, tails, spines, and chest ribs were collected, imaged, and saved for subsequent histology analysis. All acquired fluorescence images were analyzed using the Living Image software (PerkinElmer). The fluorescence signal from each specimen was measured by quantifying the average radiation efficiency within the selected oval‐shaped regions‐of‐interest.

Data set [2] concerns vitreous bodies and skin. The experiment in a line: In vivo uptake in vitreous bodies and skin. The settings on record: mouse, 2 h post i.v. injection of 2 nmol. Here is the method: as §1, with “Next, the airways, ankles, ears, paws, knees, tails, spines, and chest ribs were collected, imaged, and saved for subsequent histology analysis.” left out
Data set [3] in a line: Blood biochemical analysis. Format: in vivo, mouse. The note with it: C57BL/6J mice, 24 h post i.v. injection of 2 nmol, n = 5. Here is the method:
Blood biochemical analysis: Each C57BL/6J mouse (6–8 weeks old) was intravenously injected with 100 µL of PBS or Cy5‐(NlysO)7 (2 nmol in 100 µL 1× PBS buffer per mouse) 24 h prior to blood collection for the biochemical analysis. Biochemical analysis of the blood was performed by Wuhan Servicebio.

A short description of data set [4]: Routine (whole) blood tests after repeated dosing. The settings on record: C57BL/6J mice, 3 weekly i.v. doses of 2 nmol over 14 days, n = 5. Format: in vivo, mouse. Here is the method: Whole blood tests: Each C57BL/6J mouse (6–8 weeks old) was intravenously injected with 100 µL of PBS buffer or with each peptide or peptoid probe (2 nmol in 100 µL 1× PBS buffer per mouse) on days 0, 7, and 14. The mice were sacrificed on day 15, 24 h after the final injection. The heart, liver, spleen, lungs, and kidneys were collected from each mouse and processed into formalin‐fixed paraffin‐embedded sections for histological evaluation with H&E staining. Whole blood was collected. Both H&E and blood sample analyses were performed by Wuhan Servicebio.

A short description of data set [5]: In vitro cartilage uptake (absorption). The settings on record: after 30 min; 10 mg porcine cartilage slice, 10 µM in 200 µL 1× PBS, room temperature, fluorescence, n = 6. Here is the method:
Porcine cartilage was freshly harvested from the articular cartilage of an adult pig's knee joint obtained from a local slaughterhouse. Porcine cartilage plugs (diameter: 6 mm) were excised using an osteotomy drill with constant rinsing with PBS buffer for cooling. All solutions in the experiments with unfixed porcine cartilage samples (e.g., Figure 2d–f; Figures S5 and S6, Supporting Information) contained 100 U mL^−1 penicillin and 0.1 mg mL^−1 streptomycin (Solarbio, P1400) to prevent bacterial growth.
The porcine cartilage plugs were carefully cut into small cuboids with a uniform size (≈5 × 1 × 2 mm, ≈10 mg by wet weight). […] Each incubation bath was aliquoted so its fluorescence FN1 of the incubation bath was measured without the cartilage samples using a microplate reader (PerkinElmer EnVision; excitation: 646 nm, emission: 662 nm) at specified time points (N1 = 0.5, 1, 2, 4, 6, 8, 10, 12, and 24 h) to estimate the absorption of the probes (Figure 2d; Figure S5, Supporting Information), while fluorescence levels of the compound solutions pre‐measured before incubation were recorded as Fpre. The unabsorbed percent was calculated as FN1/Fpre×100%, and the final fluorescence measurement after 24 h of absorption was recorded as F24h. […]

Turning to `CN1/C(=C/C=C/C=C/C2=[N+](CCCCCC(=O)NCCCCCC(=O)N(CCCCN)CC(=O)N3C[C@H](O)C[C@H]3C(=O)N(CCCCN)CC(=O)N3C[C@H](O)C[C@H]3C(=O)N(CCCCN)CC(=O)N3C[C@H](O)C[C@H]3C(=O)N(CCCCN)CC(=O)N3C[C@H](O)C[C@H]3C(=O)N(CCCCN)CC(=O)N3C[C@H](O)C[C@H]3C(=O)N(CCCCN)CC(=O)N3C[C@H](O)C[C@H]3C(=O)N(CCCCN)CC(=O)N3C[C@H](O)C[C@H]3C(N)=O)c3ccc(S(=O)(=O)[O-])cc3C2(C)C)C(C)(C)c2cc(S(=O)(=O)O)ccc21` [Cy5‐(NlysO)7] ({X1-Ahx}-[Nlys][Hyp][Nlys][Hyp][Nlys][Hyp][Nlys][Hyp][Nlys][Hyp][Nlys][Hyp][Nlys][Hyp]-NH2), the “clearance route from organ fluorescence” value in data set [1] was “might be mainly cleared through kidneys”. For the same compound, the “in vivo fluorescence uptake in vitreous bodies and skin compared to cartilage” value in data set [2] is “virtually no in vivo fluorescence uptake”. The “blood biochemical analytes (ALT, AST, TBIL, UREA, BUN, CREA) vs PBS group” value in data set [3] is “no key analytes from the Cy5‐(NlysO)7 group significantly differed”. The “routine blood analyses vs PBS control group” value in data set [4] is “None of the measurements”.

As for `CN1/C(=C/C=C/C=C/C2=[N+](CCCCCC(=O)NCCCCCC(=O)N[C@@H](CCCNC(=N)N)C(=O)N[C@@H](CCCNC(=N)N)C(=O)N[C@@H](CCCNC(=N)N)C(=O)N[C@@H](CCCNC(=N)N)C(=O)N[C@@H](CCCNC(=N)N)C(=O)N[C@@H](CCCNC(=N)N)C(=O)N[C@@H](CCCNC(=N)N)C(=O)N[C@@H](CCCNC(=N)N)C(N)=O)c3ccc(S(=O)(=O)[O-])cc3C2(C)C)C(C)(C)c2cc(S(=O)(=O)O)ccc21` [Cy5‐R8, reference compound], in data set [5], the “unabsorbed percent of starting concentration remaining in solution” value is “≈ 20%”.
